Earlier results in patent US20160243144A1 (Oakdene Holdings LLC, priority 2015, published 2016).

Tests used:
[1] = particularly in patients with HE
[2] = given orally

intra-subject variability in Cmax or AUC [1]	time by which urinary excretion is essentially complete [2]	urinary excretion [2]	Compound
≥ 30 % CV	–	–	CO[C@H]1/C=C/O[C@@]2(C)Oc3c(C)c(O)c4c(O)c(c5c(nc6cc(C)ccn65)c4c3C2=O)NC(=O)/C(C)=C\C=C\[C@H](C)[C@H](O)[C@@H](C)[C@@H](O)[C@@H](C)[C@H](OC(C)=O)[C@@H]1C [Rifaximin]
–	≤ 24 h	≤ 3%	OC[C@H]1O[C@@H](O[C@@H]2[C@@H](CO)OC(O)(CO)[C@H]2O)[C@H](O)[C@@H](O)[C@H]1O (mixture of isomers) [lactulose]
